ChEMBL document CHEMBL1150977, “A quantitative analysis of kinase inhibitor selectivity” (Nat Biotechnol, 2008)

How the values were obtained:
[1] = biological target: Serine/threonine-protein kinase Nek6 (Homo sapiens, UniProt Q9HC98)
[2] = biological target: Dual specificity protein kinase CLK3 (Homo sapiens, UniProt P49761)
Insulin receptor = Insulin receptor (Homo sapiens, UniProt P06213)
Ephrin type-A receptor 1 = biological target: T1, Ephrin type-A receptor 1 (Homo sapiens, UniProt P21709)
T1 sequence (P21709 whole entry): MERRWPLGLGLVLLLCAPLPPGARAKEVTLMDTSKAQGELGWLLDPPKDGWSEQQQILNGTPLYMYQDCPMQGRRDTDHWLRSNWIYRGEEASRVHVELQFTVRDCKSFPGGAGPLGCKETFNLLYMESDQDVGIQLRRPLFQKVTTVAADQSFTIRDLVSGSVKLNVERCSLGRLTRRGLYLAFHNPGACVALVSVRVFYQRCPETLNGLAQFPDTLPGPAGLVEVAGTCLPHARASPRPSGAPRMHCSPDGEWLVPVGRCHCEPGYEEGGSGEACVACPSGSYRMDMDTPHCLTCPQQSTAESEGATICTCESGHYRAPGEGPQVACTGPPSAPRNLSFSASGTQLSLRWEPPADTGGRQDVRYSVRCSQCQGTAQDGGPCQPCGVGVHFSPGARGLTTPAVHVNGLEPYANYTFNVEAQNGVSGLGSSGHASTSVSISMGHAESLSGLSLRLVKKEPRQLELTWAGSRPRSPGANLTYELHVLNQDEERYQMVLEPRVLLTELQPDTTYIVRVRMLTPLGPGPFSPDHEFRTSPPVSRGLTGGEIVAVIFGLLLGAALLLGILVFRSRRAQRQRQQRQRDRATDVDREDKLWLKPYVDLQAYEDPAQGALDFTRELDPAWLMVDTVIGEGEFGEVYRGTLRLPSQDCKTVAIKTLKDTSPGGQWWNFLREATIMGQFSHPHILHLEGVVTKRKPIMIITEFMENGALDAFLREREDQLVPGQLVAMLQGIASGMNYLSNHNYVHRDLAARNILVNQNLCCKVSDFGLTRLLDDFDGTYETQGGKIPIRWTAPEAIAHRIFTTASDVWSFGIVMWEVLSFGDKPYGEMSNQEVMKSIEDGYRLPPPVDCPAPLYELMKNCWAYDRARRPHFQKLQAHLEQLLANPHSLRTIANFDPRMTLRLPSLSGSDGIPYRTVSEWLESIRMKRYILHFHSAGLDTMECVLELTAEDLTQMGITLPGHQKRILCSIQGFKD

[3] = biological target: AP2-associated protein kinase 1 (Homo sapiens, UniProt Q2M2I8)
Chain of AP2-associated protein kinase 1 (Q2M2I8 whole entry): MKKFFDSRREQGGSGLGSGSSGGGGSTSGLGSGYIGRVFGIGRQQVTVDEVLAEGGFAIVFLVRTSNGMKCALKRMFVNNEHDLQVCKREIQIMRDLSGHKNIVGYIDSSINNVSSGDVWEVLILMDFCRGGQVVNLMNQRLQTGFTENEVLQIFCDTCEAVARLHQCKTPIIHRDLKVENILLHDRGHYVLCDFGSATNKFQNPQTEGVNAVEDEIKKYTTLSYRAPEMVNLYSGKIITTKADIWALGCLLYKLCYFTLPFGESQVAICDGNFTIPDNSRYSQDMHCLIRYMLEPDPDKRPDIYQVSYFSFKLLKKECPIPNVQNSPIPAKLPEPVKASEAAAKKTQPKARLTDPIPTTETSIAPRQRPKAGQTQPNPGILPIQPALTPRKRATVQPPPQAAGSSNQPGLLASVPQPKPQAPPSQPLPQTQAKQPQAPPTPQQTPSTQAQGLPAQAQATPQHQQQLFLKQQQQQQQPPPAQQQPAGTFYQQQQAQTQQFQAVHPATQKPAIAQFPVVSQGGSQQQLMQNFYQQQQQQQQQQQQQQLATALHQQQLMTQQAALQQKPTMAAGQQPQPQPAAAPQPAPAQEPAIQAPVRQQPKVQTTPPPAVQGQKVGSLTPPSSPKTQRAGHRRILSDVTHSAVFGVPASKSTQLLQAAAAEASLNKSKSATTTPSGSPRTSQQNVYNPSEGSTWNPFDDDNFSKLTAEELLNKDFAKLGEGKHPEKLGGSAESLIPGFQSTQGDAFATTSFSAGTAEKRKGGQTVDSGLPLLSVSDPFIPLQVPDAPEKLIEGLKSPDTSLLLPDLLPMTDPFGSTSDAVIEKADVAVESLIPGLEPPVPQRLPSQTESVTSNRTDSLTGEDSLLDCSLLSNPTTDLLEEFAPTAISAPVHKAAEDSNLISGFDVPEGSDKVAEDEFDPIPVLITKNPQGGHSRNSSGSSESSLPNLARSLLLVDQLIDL

[4] = biological target: Cyclin-dependent kinase 11B (Homo sapiens, UniProt P21127)
Chain of Cyclin-dependent kinase 11B (P21127 whole entry): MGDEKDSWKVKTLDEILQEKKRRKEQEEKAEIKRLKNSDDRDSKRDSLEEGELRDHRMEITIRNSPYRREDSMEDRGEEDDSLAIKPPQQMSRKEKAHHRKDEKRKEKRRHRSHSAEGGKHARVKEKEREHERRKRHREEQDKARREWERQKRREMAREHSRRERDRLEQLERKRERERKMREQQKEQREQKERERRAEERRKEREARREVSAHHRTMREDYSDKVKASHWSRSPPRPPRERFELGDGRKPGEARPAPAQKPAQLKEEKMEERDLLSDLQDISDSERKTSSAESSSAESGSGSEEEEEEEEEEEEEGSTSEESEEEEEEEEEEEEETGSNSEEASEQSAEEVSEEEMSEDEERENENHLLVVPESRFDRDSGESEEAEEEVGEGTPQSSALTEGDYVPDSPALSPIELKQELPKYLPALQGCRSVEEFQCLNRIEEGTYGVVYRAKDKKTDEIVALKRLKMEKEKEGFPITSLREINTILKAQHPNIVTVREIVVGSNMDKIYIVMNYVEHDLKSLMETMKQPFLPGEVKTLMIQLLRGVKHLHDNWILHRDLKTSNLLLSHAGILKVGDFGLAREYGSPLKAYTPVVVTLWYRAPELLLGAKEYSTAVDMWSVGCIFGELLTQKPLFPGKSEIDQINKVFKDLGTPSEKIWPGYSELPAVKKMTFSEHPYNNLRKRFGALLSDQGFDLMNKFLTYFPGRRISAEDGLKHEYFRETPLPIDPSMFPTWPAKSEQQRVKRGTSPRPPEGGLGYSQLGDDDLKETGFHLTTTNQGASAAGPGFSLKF

[5] = biological target: Tyrosine-protein kinase Fer (Homo sapiens, UniProt P16591)
[6] = biological target: T2, Serine/threonine-protein kinase Nek9 (Homo sapiens, UniProt Q8TD19)
T2 sequence (Q8TD19 whole entry): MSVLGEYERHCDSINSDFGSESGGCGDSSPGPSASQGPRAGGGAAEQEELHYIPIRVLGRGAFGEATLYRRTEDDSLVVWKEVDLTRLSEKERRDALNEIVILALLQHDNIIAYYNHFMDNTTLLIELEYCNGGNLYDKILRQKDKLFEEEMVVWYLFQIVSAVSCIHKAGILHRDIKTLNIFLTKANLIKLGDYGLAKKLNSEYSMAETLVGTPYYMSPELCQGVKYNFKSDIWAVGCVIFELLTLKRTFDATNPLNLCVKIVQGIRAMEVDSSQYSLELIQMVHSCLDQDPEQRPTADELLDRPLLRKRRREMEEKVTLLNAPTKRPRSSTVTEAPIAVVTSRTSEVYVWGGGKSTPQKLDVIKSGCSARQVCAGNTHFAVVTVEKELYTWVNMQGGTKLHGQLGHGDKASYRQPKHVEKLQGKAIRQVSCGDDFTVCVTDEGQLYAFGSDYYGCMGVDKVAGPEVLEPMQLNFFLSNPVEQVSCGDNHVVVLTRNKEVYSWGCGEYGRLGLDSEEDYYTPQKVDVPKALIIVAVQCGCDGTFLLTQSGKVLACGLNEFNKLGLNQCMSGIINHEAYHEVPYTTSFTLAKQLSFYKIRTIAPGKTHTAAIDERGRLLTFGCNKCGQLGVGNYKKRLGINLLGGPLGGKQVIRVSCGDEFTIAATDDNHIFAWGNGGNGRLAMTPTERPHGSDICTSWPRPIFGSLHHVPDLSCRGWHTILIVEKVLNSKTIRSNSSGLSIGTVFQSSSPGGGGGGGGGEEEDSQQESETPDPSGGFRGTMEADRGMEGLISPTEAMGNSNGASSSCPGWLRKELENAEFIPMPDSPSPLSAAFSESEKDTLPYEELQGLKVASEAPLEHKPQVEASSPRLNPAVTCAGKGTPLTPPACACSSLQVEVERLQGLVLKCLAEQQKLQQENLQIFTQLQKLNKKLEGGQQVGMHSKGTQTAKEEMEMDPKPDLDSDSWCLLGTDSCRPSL

[7] = biological target: T3, Dual specificity mitogen-activated protein kinase kinase 3 (Homo sapiens, UniProt P46734)
T3 sequence (P46734 whole entry): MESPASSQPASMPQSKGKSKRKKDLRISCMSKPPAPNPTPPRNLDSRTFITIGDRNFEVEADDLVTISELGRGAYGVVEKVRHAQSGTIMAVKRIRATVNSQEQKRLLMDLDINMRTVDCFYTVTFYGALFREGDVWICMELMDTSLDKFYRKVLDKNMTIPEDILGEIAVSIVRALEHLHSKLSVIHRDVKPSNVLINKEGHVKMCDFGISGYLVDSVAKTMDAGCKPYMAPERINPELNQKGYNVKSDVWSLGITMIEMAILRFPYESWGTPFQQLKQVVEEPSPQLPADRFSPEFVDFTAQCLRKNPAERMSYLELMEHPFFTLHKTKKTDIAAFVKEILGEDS

[8] = biological target: Non-receptor tyrosine-protein kinase TYK2 (Homo sapiens, UniProt P29597)
Chain of Non-receptor tyrosine-protein kinase TYK2 (P29597 whole entry): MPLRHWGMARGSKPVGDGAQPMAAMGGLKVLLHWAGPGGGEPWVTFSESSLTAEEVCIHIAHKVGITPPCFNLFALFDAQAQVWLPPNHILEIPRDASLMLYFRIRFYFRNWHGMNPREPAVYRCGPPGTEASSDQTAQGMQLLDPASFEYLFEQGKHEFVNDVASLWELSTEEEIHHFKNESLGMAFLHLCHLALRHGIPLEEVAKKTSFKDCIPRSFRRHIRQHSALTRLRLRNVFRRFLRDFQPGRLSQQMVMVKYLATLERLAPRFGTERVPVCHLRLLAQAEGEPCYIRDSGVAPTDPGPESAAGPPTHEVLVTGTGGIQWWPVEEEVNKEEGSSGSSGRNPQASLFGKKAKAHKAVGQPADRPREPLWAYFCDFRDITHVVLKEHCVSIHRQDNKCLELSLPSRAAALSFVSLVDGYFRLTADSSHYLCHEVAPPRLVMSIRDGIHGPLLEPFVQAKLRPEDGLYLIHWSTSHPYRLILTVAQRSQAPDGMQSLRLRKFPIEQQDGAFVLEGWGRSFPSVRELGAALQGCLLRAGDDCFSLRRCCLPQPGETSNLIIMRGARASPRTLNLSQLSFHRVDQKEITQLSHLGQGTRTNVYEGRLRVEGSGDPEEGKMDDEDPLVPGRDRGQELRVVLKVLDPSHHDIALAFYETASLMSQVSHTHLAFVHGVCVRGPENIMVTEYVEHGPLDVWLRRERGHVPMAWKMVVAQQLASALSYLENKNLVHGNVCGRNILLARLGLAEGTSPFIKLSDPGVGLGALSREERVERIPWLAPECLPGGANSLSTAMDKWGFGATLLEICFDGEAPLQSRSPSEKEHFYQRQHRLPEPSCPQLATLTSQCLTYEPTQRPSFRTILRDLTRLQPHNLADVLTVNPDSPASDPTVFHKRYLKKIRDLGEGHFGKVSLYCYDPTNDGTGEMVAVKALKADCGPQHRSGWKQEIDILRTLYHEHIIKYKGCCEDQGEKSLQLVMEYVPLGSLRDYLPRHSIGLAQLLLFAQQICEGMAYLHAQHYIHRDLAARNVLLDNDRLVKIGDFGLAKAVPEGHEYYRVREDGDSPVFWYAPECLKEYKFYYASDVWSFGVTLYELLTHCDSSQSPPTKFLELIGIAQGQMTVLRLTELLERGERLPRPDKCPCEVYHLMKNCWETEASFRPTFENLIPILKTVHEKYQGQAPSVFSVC

[9] = biological target: Phosphatidylinositol 4-phosphate 5-kinase type-1 alpha (Homo sapiens, UniProt Q99755)
Chain of Phosphatidylinositol 4-phosphate 5-kinase type-1 alpha (Q99755 whole entry): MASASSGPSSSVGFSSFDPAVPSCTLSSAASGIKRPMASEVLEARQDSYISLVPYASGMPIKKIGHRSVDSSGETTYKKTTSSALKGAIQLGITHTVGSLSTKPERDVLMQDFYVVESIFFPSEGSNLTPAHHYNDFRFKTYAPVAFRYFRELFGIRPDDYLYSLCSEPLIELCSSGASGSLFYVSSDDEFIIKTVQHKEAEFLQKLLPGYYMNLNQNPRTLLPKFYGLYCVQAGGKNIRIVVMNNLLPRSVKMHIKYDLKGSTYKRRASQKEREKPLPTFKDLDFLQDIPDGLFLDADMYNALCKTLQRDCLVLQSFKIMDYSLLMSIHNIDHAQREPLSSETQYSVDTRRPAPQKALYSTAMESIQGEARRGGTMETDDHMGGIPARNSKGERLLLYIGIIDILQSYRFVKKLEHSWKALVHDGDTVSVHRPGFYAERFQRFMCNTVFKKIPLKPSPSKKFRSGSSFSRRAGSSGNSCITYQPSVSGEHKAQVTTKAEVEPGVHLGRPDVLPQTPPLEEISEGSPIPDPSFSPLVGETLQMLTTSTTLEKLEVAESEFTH

[10] = biological target: Glycogen synthase kinase-3 alpha (Homo sapiens, UniProt P49840)
[11] = biological target: Tyrosine-protein kinase SYK (Homo sapiens, UniProt P43405)
[12] = biological target: Serine/threonine-protein kinase 38-like (Homo sapiens, UniProt Q9Y2H1)
Chain of Serine/threonine-protein kinase 38-like (Q9Y2H1 whole entry): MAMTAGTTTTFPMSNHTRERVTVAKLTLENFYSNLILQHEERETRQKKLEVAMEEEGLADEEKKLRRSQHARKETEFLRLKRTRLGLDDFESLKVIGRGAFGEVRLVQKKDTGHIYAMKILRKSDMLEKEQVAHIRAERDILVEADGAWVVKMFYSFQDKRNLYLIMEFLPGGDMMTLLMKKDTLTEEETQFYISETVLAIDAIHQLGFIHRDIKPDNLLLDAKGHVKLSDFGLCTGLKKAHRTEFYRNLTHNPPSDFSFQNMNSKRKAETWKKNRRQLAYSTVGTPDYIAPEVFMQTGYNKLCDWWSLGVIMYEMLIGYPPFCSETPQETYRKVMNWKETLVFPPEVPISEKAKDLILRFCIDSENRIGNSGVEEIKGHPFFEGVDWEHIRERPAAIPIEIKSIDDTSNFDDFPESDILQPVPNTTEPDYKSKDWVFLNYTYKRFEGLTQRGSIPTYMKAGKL

[13] = biological target: cAMP-dependent protein kinase catalytic subunit alpha (Homo sapiens, UniProt P17612)

Chain of Dual specificity protein kinase CLK3 (P49761 whole entry): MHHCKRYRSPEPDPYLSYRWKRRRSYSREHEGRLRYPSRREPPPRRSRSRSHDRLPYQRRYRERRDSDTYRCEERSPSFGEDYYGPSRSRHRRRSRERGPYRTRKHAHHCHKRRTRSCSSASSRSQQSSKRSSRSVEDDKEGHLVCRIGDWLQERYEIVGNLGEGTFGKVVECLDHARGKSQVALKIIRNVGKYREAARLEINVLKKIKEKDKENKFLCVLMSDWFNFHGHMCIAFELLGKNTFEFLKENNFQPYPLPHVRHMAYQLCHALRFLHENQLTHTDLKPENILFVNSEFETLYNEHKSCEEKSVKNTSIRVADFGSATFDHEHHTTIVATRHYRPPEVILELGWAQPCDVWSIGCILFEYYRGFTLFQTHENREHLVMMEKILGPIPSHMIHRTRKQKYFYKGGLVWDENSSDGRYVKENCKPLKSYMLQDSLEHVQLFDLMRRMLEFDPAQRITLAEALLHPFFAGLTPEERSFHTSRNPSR
Chain of Serine/threonine-protein kinase Nek6 (Q9HC98 whole entry): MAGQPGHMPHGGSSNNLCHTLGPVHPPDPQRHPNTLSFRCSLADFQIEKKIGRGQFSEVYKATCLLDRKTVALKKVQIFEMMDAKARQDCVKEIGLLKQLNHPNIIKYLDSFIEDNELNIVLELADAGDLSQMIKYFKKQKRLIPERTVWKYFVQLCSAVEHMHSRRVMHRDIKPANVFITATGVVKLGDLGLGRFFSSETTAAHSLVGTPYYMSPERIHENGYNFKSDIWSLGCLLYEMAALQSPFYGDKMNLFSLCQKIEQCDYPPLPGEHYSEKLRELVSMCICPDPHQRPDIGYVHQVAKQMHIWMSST

For `COCC(=O)NC/C=C/c1ccc2ncnc(Nc3ccc(Oc4ccc(C)nc4)c(C)c3)c2c1` [CP-724714], which Kd [1] is on record?
The Kd was > 10 µM.

And the Kd [2]?
The Kd was > 10 µM.

And the Kd (Insulin receptor)?
Its Kd is > 10 µM.

And the Kd (Ephrin type-A receptor 1)?
Its Kd is > 10 µM.

What about the Kd [3] of the same compound?
The Kd was > 10 µM.

And the Kd [4]?
Its Kd is > 10 µM.

And the Kd [5]?
Its Kd is > 10 µM.

What about the Kd [6] of the same compound?
The Kd was > 10 µM.

What about the Kd [7] of the same compound?
Its Kd is > 10 µM.

What about the Kd [8] of the same compound?
Its Kd is > 10 µM.

And the Kd [9]?
The Kd was > 10 µM.

And the Kd [10]?
Its Kd is > 10 µM.

And the Kd [11]?
Its Kd is > 10 µM.

What about the Kd [12] of the same compound?
The Kd was > 10 µM.

And the Kd [13]?
The Kd was > 10 µM.

Which results are given for `NC(=O)c1ccc(-c2nc(-c3ccc4c(c3)OCO4)c(-c3ccccn3)[nH]2)cc1` [SB-431542]?
Kd [1]: > 10 µM; Kd [2]: > 10 µM; Kd (Insulin receptor): > 10 µM; Kd (Ephrin type-A receptor 1): > 10 µM; Kd [3]: > 10 µM; Kd [4]: > 10 µM; Kd [5]: > 10 µM; Kd [6]: > 10 µM; Kd [7]: > 10 µM; Kd [8]: > 10 µM; Kd [9]: > 10 µM; Kd [10]: > 10 µM; Kd [11]: > 10 µM; Kd [12]: > 10 µM; Kd [13]: > 10 µM

Which results are given for `Nc1nc(Nc2ccc(S(N)(=O)=O)cc2)nn1C(=O)c1c(F)cccc1F` [JNJ-7706621]?
Kd [1]: > 10 µM; Kd [2]: 0.31 µM; Kd (Insulin receptor): > 10 µM; Kd (Ephrin type-A receptor 1): > 10 µM; Kd [5]: > 10 µM; Kd [6]: > 10 µM; Kd [7]: 1.5 µM; Kd [8]: 0.032 µM; Kd [9]: 9.2 µM; Kd [10]: 0.16 µM; Kd [12]: > 10 µM

What does the source list for `CCOc1cc2ncc(C#N)c(Nc3ccc(F)c(Cl)c3)c2cc1NC(=O)/C=C/CN(C)C` [PELITINIB]?
Kd [1]: > 10 µM; Kd [2]: 5.6 µM; Kd (Insulin receptor): > 10 µM; Kd (Ephrin type-A receptor 1): > 10 µM; Kd [4]: > 10 µM; Kd [5]: 8.8 µM; Kd [6]: > 10 µM; Kd [7]: > 10 µM; Kd [8]: > 10 µM; Kd [9]: > 10 µM; Kd [10]: > 10 µM; Kd [11]: 7.2 µM; Kd [12]: > 10 µM; Kd [13]: > 10 µM

How did the Kd [1] turn out when `CCN1CCN(Cc2ccc(NC(=O)Nc3ccc(Oc4cc(NC)ncn4)cc3)cc2C(F)(F)F)CC1` [AST-487] was run?
Its Kd is > 10 µM.

What about the Kd [2] of the same compound?
Its Kd is > 10 µM.

And the Kd (Insulin receptor)?
The Kd was > 10 µM.

What about the Kd (Ephrin type-A receptor 1) of the same compound?
The Kd was > 10 µM.

And the Kd [6]?
Its Kd is > 10 µM.

What about the Kd [7] of the same compound?
Its Kd is > 10 µM.

And the Kd [8]?
Its Kd is 2.1 µM.

And the Kd [10]?
Its Kd is > 10 µM.

What about the Kd [12] of the same compound?
The Kd was > 10 µM.

For `Oc1ccc(-c2nc(-c3ccncc3)c(-c3ccc(F)cc3)[nH]2)cc1` [SB-202190], which Kd [1] is on record?
Its Kd is > 10 µM.

And the Kd [2]?
The Kd was > 10 µM.

And the Kd (Insulin receptor)?
The Kd was > 10 µM.

What about the Kd (Ephrin type-A receptor 1) of the same compound?
Its Kd is > 10 µM.

What about the Kd [3] of the same compound?
The Kd was > 10 µM.

And the Kd [4]?
Its Kd is > 10 µM.

And the Kd [5]?
The Kd was > 10 µM.

And the Kd [6]?
Its Kd is > 10 µM.

What about the Kd [7] of the same compound?
Its Kd is > 10 µM.

And the Kd [8]?
The Kd was > 10 µM.

What about the Kd [9] of the same compound?
The Kd was > 10 µM.

What about the Kd [10] of the same compound?
The Kd was > 10 µM.

And the Kd [11]?
The Kd was > 10 µM.

And the Kd [12]?
The Kd was > 10 µM.
